# Laboratory results published in US20210255193A1, “LYSINE REACTIVE PROBES AND USES THEREOF” (The Scripps Research Institute, priority 2017, published 2021).
# Columns and labels:
# [1] = target: T1, CPOX Coproporphyrinogen-III oxidase, mitochondrial (Homo sapiens, UniProt P36551); assay: competitive isoTOP-ABPP; format: binding; set-up: key to isoTOP-ABPP reactivity ratio at lysine P36551_K404: R = MS1 peak area ratio, DMSO (heavy) / compound-treated (light); conditions: 50 uM, in vitro; for R value (DMSO/fragment) for probe 1 labeling: P36551_K404; for R value (DMSO/fragment) for probe 1 labeling / isoTOP-ABPP reactivity ratio at lysine P36551_K404: 231 sol; for isoTOP-ABPP ratio (R) at liganded lysine P36551_K404: sol, 231
# T1 construct: isoTOP-ABPP experiments performed in cell lysates (in vitro); endogenous in cells; host or cells: soluble proteome of human cancer cell lines (MDA-MB-231; Ramos and Jurkat also prepared)
# T1 sequence (P36551 111-454): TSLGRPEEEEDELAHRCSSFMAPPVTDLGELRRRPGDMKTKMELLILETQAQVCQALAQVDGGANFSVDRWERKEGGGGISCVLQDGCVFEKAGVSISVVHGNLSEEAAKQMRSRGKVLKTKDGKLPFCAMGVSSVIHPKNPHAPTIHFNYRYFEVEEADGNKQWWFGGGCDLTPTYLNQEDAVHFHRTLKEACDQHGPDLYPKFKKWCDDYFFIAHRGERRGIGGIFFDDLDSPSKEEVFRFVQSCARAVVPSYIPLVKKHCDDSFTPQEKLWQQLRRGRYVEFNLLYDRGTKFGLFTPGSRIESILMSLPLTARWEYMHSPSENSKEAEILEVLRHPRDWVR
# Method: (§1) In vitro covalent fragment treatment for isoTOP-ABPP. All compounds were made up as solutions in DMSO (100×) and were used at a final concentration of 50 μM for activated esters and 100 μM for guanidinylating agents. For each profiling sample, 0.5 ml of lysate was treated with 5 μl of the 100× compound stock solution or 5 μl of DMSO. Samples were treated with activated esters for
# (§2) STP-alkyne labeling and click chemistry. For concentration-dependent reactivity measurements by isoTOP-ABPP, 0.5 ml proteome aliquots were treated at ambient temperature with 1 mM STP-alkyne 1 (5 μl of 100 mM stock in DMSO) and 0.1 mM STP alkyne 1 (5 μl of 10 mM stock in DMSO), respectively. For competitive isoTOP-ABPP, after in vitro fragment treatment (detailed above), the samples were labeled for 1 h at ambient temperature with 0.1 mM STP-alkyne 1 (5 μl of 10 mM stock in DMSO). Samples were conjugated by copper-mediated azide-alkyne cycloaddition (CuAAC) to either the light (1 mM STP-alkyne or fragment treated) or heavy (0.1 mM STP-alkyne or DMSO treated) TEV tags (10 μl of 5 mM stocks in DMSO, final concentration=100 μM) using tris(2-carboxyethyl)phosphine hydrochloride
# (§3) R value calculation and processing. The ratios of light and heavy MS1 peaks for each unique peptide were quantified with a CIMAGE software using default parameters (3 MS1 acquisitions per peak and signal to noise threshold set to 2.5). For reactivity measurements by isoTOP-ABPP, the R value was calculated from the ratio of MS1 peak areas, comparing the 1 mM STP alkyne sample (light TEV tag) with the 0.1 mM STP alkyne sample (heavy TEV tag). For competitive isoTOP-ABPP, the R value was calculated from the ratio of MS1 peak areas, comparing the DMSO treated sample (heavy TEV tag) with the compound treated sample (light TEV tag). […] Ratios for unique peptide entries are calculated for each experiment; overlapping peptides with the same modified lysine (for example, different charge states, MudPIT chromatographic steps or tryptic termini) are grouped together and the median ratio is reported as the final ratio (R). The peptide ratios reported by CIMAGE were further filtered to ensure the removal or correction of low-quality ratios in each individual data set. The quality filters applied were the following: removal of half tryptic peptides; for ratios with high standard deviations from the median (90% of the median or above) the lowest ratio was taken instead of the median; removal of peptides with R=20 and only a single MS2 event triggered during the elution of the parent ion; manual annotation of all the peptides with ratios of 20, removing any peptides with low quality elution profiles that remained after the previous curation steps (only done for competitive isoTOP-ABPP).
# (§4) Cross-data processing for fragment screening. For compound treated samples, biological replicates of the same condition were averaged, if the standard deviation was below 60% of the mean; otherwise, for lysines with at least one R value <4 for a particular compound, the lowest value of the ratio set was taken. For lysines, where all R values for a particular compound were ≥4, the average was reported. For peptides containing several possible modified lysines, the lysine with the highest number of quantification events was used for analysis and the remaining, redundant peptides were reported as alternative modification sites. Peptides included in the aggregate dataset (those used for further bioinformatics and statistical analyses) were required to have been quantified in 2 experiments for competitive isoTOP-ABPP. Lysines were categorized as liganded, if they had at least one ratio R≥4 (hit fragments). For liganded lysines with R=20 for all liganding events, lysines were required to have been quantified with R=20 in two separate experiments and were further required to have been quantified with R<20 in one additional experiment.
# [2] = target: T2, ECH1 Delta(3,5)-Delta(2,4)-dienoyl-CoA isomerase, mitochondrial (Homo sapiens, UniProt Q13011); assay: competitive isoTOP-ABPP; format: binding; set-up: key to isoTOP-ABPP reactivity ratio at lysine Q13011_K112: R = MS1 peak area ratio, DMSO (heavy) / compound-treated (light); capped at 20; conditions: 50 uM, in vitro; for R value (DMSO/fragment) for probe 1 labeling: Q13011_K112; for R value (DMSO/fragment) for probe 1 labeling / isoTOP-ABPP reactivity ratio at lysine Q13011_K112: 231 sol; for isoTOP-ABPP ratio (R) at liganded lysine Q13011_K112: sol, 231
# T2 construct: isoTOP-ABPP experiments performed in cell lysates (in vitro); endogenous in cells; host or cells: soluble proteome of human cancer cell lines (MDA-MB-231, Ramos, Jurkat)
# T2 sequence (Q13011 34-328): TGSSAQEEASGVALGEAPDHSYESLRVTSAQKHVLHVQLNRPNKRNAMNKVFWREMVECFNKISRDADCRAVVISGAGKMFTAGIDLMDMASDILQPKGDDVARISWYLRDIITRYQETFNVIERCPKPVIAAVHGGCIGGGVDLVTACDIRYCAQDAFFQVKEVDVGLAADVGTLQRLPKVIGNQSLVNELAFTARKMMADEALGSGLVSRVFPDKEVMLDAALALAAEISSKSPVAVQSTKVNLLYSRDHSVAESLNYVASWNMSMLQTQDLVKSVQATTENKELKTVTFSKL
# Method: as §1, §2, §3, §4
Structure (SMILES),isoTOP-ABPP reactivity ratio at lysine P36551_K404 [1],isoTOP-ABPP reactivity ratio at lysine Q13011_K112 [2],isoTOP-ABPP ratio (R) at liganded lysine P36551_K404 [1],isoTOP-ABPP ratio (R) at liganded lysine Q13011_K112 [2],also measured
"O=C(CCc1cn(-c2ccccc2)nc1-c1ccccc1)Oc1c(F)c(F)c(F)c(F)c1F [fragment 19, Pentafluorophenyl 3-(1,3-diphenyl-1H-pyrazol-4-yl)propanoate]",,,,,R value (DMSO/fragment) for probe 1 labeling [1]: 10.8; R value (DMSO/fragment) for probe 1 labeling [2]: 4.7
"O=C(Oc1c(F)c(F)c(F)c(F)c1F)C(c1ccccc1)c1ccccc1 [fragment 20, Pentafluorophenyl 2,2-diphenylacetate]",,,,,R value (DMSO/fragment) for probe 1 labeling [1]: 1.1; R value (DMSO/fragment) for probe 1 labeling [2]: 1.4
"O=C(Oc1c(F)c(F)c(F)c(F)c1F)c1cc(C(F)(F)F)cc(C(F)(F)F)c1 [fragment 21, Pentafluorophenyl 3,5-bis(trifluoromethyl)benzoate]",,,,,R value (DMSO/fragment) for probe 1 labeling [1]: 1.0; R value (DMSO/fragment) for probe 1 labeling [2]: 1.5
"Cn1cc(CC(=O)Oc2c(F)c(F)c(F)c(F)c2F)c2ccccc21 [fragment 22, Pentafluorophenyl 2-(1-methyl-1H-indol-3-yl)acetate]",,,,,R value (DMSO/fragment) for probe 1 labeling [1]: 1.1; R value (DMSO/fragment) for probe 1 labeling [2]: 1.5
"COc1cc(CCC(=O)Oc2c(F)c(F)c(F)c(F)c2F)cc(OC)c1OC [fragment 23, Pentafluorophenyl 3-(3,4,5-trimethoxyphenyl)propanoate]",,,,,R value (DMSO/fragment) for probe 1 labeling [1]: 1.3; R value (DMSO/fragment) for probe 1 labeling [2]: 4.7
"O=C(Oc1c(F)c(F)c(F)c(F)c1F)C1CCN(C(=O)OCc2ccccc2)CC1 [fragment 24, 1-Benzyl 4-(pentafluorophenyl) piperidine-1,4-dicarboxylate]",1.2,,,,
"O=C(Oc1c(F)c(F)c(F)c(F)c1F)c1ccc2ccccc2n1 [fragment 25, Pentafluorophenyl quinoline-2-carboxylate]",1.3,2.7,,,
"O=C(CCc1coc2cc(F)ccc2c1=O)Oc1c(F)c(F)c(F)c(F)c1F [fragment 26, Pentafluorophenyl 3-(7-fluoro-4-oxo-4H-chromen-3-yl)propanoate]",1.1,,,,
"O=C(CN1C(=O)c2ccccc2C1=O)Oc1c(F)c(F)c(F)c(F)c1F [fragment 27, Pentafluorophenyl 2-(1,3-dioxoisoindolin-2-yl)acetate]",1.2,2.7,,,
"CCn1cc(C(=O)Oc2c(F)c(F)c(F)c(F)c2F)c(=O)c2ccc(C)nc21 [fragment 28, Pentafluorophenyl 1-ethyl-7-methyl-4-oxo-1,4-dihydro-1,8-naphthyridine-3-carboxylate]",0.9,1.8,,,
"O=C(CCc1cn(-c2ccccc2)nc1-c1ccccc1)Oc1ccc([N+](=O)[O-])cc1[N+](=O)[O-] [fragment 29, 2,4-Dinitrophenyl 3-(1,3-diphenyl-1H-pyrazol-4-yl)propanoate]",18.1,1.0,,,
"O=C(Oc1ccc([N+](=O)[O-])cc1[N+](=O)[O-])C(c1ccccc1)c1ccccc1 [fragment 30, 2,4-Dinitrophenyl 2,2-diphenylacetate]",1.1,0.9,,,
"O=C(Oc1ccc([N+](=O)[O-])cc1[N+](=O)[O-])c1cc(C(F)(F)F)cc(C(F)(F)F)c1 [fragment 31, 2,4-Dinitrophenyl 3,5-bis(trifluoromethyl)benzoate]",1.1,1.2,,,
"Cn1cc(CC(=O)Oc2ccc([N+](=O)[O-])cc2[N+](=O)[O-])c2ccccc21 [fragment 32, 2,4-Dinitrophenyl 2-(1-methyl-1H-indol-3-yl)acetate]",1.0,1.0,,,
"COc1cc(CCC(=O)Oc2ccc([N+](=O)[O-])cc2[N+](=O)[O-])cc(OC)c1OC [fragment 33, 2,4-Dinitrophenyl 3-(3,4,5-trimethoxyphenyl)propanoate]",1.0,0.9,,,
"O=C(Oc1ccc([N+](=O)[O-])cc1[N+](=O)[O-])C1CCN(C(=O)OCc2ccccc2)CC1 [fragment 34, 1-Benzyl 4-(2,4-dinitrophenyl) piperidine-1,4-dicarboxylate]",,,1.1,1.1,
"O=C(Oc1ccc([N+](=O)[O-])cc1[N+](=O)[O-])c1ccc2ccccc2n1 [fragment 35, 2,4-Dinitrophenyl quinoline-2-carboxylate]",,,1.2,1.0,
"O=C(CCc1coc2cc(F)ccc2c1=O)Oc1ccc([N+](=O)[O-])cc1[N+](=O)[O-] [fragment 36, 2,4-Dinitrophenyl 3-(7-fluoro-4-oxo-4H-chromen-3-yl)propanoate]",,,1.0,1.3,
"O=C(Oc1ccc([N+](=O)[O-])cc1[N+](=O)[O-])c1ccc(-c2ccccc2)cc1 [fragment 37, 2,4-Dinitrophenyl [1,1′-biphenyl]-4-carboxylate]",,,1.0,0.9,
"O=C(CC12CC3CC(CC(C3)C1)C2)Oc1ccc([N+](=O)[O-])cc1[N+](=O)[O-] [fragment 38, 2,4-Dinitrophenyl 2-(adamantan-1-yl)acetate]",,,1.0,0.9,
"O=C(Oc1ccc([N+](=O)[O-])cc1[N+](=O)[O-])c1ccc(Oc2ccccc2)cc1 [fragment 39, 2,4-Dinitrophenyl 4-phenoxybenzoate]",,,1.0,1.1,
"O=C(Oc1ccc([N+](=O)[O-])cc1[N+](=O)[O-])c1ccccc1Nc1cccc(C(F)(F)F)c1 [fragment 40, 2,4-Dinitrophenyl 2-((3-(trifluoromethyl)phenyl)amino)benzoate]",,,1.8,1.0,
